Laboratory results reported in patent US6403778B1, “Toxicological response markers” (Incyte Genomics, Inc., priority 1998, dated 2002).

Tests used:
Details in all cases: male, Sprague-Dawley, rat, in vivo
P450 LA-omega = system: P450 LA-omega
Method: (§1) Animals were monitored daily for physical condition and body weight, and blood samples were assayed for serum alanine transferase (ALT) and aspartate aminotransferase (AST) levels using a diagnostic kit (Sigma Aldrich). Three animals per group were sacrificed approximately 12 hours (h), 24 h, 72 h, 168 h, 336 h and 672 h following the last dose administered. Observed gross pathology and liver weights were recorded at time of necropsy. Liver, kidney, brain, spleen and pancreas from each rat were harvested, flash frozen in liquid nitrogen, and stored at −80° C.
(§2) Frozen liver was homogenized and lysed in TRIZOL reagent (Cat. #10296-028; Life Technologies) following the modifications for liver RNA isolation. Poly(A+) RNA was isolated using an OLIGOTEX kit (Qiagen, Carlsbad, Calif.) and labeled with either Cy3 or Cy5-labeled primers (Operon Technologies, Alameda, Calif.) using the GEMBRIGHT labeling kit (Incyte Genomics). MRNA isolated from tissues of rats dosed with PB was labeled with Cy5 and mRNA isolated from tissues of rats dosed with DMSO was labeled with Cy3. Quantitative and differential expression pattern control cDNAs were added to each labeling reaction. Labeled cDNA was treated with 0.5 M sodium bicarbonate (pH9.2) for 20 min at 85° C. to degrade the RNA and purified using two successive CHROMA SPIN 30 gel filtration spin columns (Clontech, Palo Alto, Calif.). Cy3 labeled control sample and Cy5 labeled experimental sample were combined and precipitated in glycogen, sodium acetate, and ethanol.
(§3) Hybridization reactions contained 9 microliters of probe mixture consisting of 0.2 micrograms each of both Cy3 and Cy5 labeled cDNA synthesis products in 5×SSC, 0.2% SDS hybridization buffer. The probe mixture was heated to 65° C. for 5 min and was aliquoted onto the microarray surface and covered with an 1.8 cm^2 coverslip. The arrays were transferred to a waterproof chamber having a cavity just slightly larger than a microscope slide. The chamber was kept at 100% humidity internally by the addition of 140 microliters of 5×SSC in a corner of the chamber. The chamber containing the arrays was incubated for about 6.5 hours at 60° C. The arrays were washed for 10 min at 45° C. in low stringency wash buffer (1×SSC, 0.1% SDS), three times for 10 min each at 45 ° C. in high stringency wash buffer (0.1×SSC), and then dried.
(§4) The microscope used to detect the reporter-labeled hybridization complexes was outfitted with an Innova 70 mixed gas 10 W laser (Coherent Lasers, Santa Clara, Calif.) capable of generating spectral lines at 488 nm for excitation of Cy3, and 632 nm for excitation of Cy5. The excitation laser light was focused on the array using a 20X microscope objective (Nikon). […]

P450 ISF/B-NF = system: P450 ISF/B-NF
Method: as §1, §2, §3, §4

P450 MCA-inducible = system: P450 MCA-inducible
Method: as §1, §2, §3, §4

SEQ ID NOs: 1-47 = system: SEQ ID NOs: 1-47
Method: as §1, §2, §3, §4

In the case of `c1ccc2c(c1)cc1ccc3cccc4ccc2c1c34` [benzo(a)pyrene], the “P450 LA-omega upregulated at least once during the time course” value (P450 LA-omega) is reported as “greater than 3 fold”, the “P450 ISF/B-NF upregulated at least once during the time course” value (P450 ISF/B-NF) is reported as “greater than 3 fold” and the “P450 MCA-inducible upregulated at least once during the time course” value (P450 MCA-inducible) is reported as “greater than 3 fold”. For the same molecule, the “SEQ ID NOs: 1-47 up-regulated or downregulated at least once during the time course” value (SEQ ID NOs: 1-47) was “at least 3 fold”.
